The values that follow are results of earlier work, collected in patent US20080152724A1, “TREATMENT OF PER[…] AN […] RELEASE IODINE” (priority 2006, published 2008).

This series deals with test strains. Conditions: all of the test strains; after 30 seconds of exposure.

On to `N=C(NCCCCCCNC(=N)NC(=N)Nc1ccc(Cl)cc1)NC(=N)Nc1ccc(Cl)cc1.O=C(O)[C@H](O)[C@@H](O)[C@H](O)[C@H](O)CO.O=C(O)[C@H](O)[C@@H](O)[C@H](O)[C@H](O)CO` [chlorhexidine gluconate], for which the bactericidal activity result is given as “residual bacteria were observed in most species”.
